Assay results as given in PubChem BioAssay AID248 (DTP/NCI, 2004).
Several values for one entry are separate records, joined by “and”; a condition that tells them apart may be missing. Identical values can stand only once. Toxic doses and inconclusive results are not listed. No stated cut-off is given here; in the data, active means T/C of 150% or more; inactive means T/C below 125%. Peptide text beside a SMILES is read from it. * marks the point of attachment. Bz = O=C(c1ccccc1)*

Tested on: L1210 leukemia ip in BDF1 mice, survival T/C
Assay: NCI In Vivo Anticancer Drug Screen. Data for tumor model L1210 Leukemia (intraperitoneal) in B6D2F1 (BDF1) mice
Settings: endpoint: mean survival time, higher = longer survival
How it was run: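 Transplanted-tumor mice were given test agent; controls received vehicle only. Survival readings from the two groups were divided (treated over control).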

[1] = dose: 100.0 mg/kg/injection, schedule: Q01DX001 (ip), vehicle: carboxymethylcellulose (CMC)
[2] = dose: 400.0 mg/kg/injection, schedule: Q01DX001 (ip), vehicle: carboxymethylcellulose (CMC)
[3] = dose: 100.0 mg/kg/injection, schedule: Q01DX009 (ip), vehicle: saline with Tween-80
[4] = dose: 200.0 mg/kg/injection, schedule: Q01DX009 (ip), vehicle: saline with Tween-80
[5] = dose: 400.0 mg/kg/injection, schedule: Q01DX009 (ip), vehicle: saline with Tween-80
[6] = dose: 100.0 mg/kg/injection, schedule: Q04DX003 (ip), vehicle: Klucel (hydroxypropylcellulose) (HPC)
[7] = dose: 200.0 mg/kg/injection, schedule: Q04DX003 (ip), vehicle: Klucel (hydroxypropylcellulose) (HPC)
[8] = dose: 400.0 mg/kg/injection, schedule: Q04DX003 (ip), vehicle: Klucel (hydroxypropylcellulose) (HPC)

Measured: T/C

CCCCCCCCCCCCCCCC[N+](C)(C)CCCCCCCCCCCCCCCC
inactive: dose: 3.12 mg/kg/injection, schedule: Q03DX003 (ip), vehicle: saline with Tween-80 103 % of control | dose: 6.25 mg/kg/injection, schedule: Q03DX003 (ip), vehicle: saline with Tween-80 100 % of control | dose: 12.5 mg/kg/injection, schedule: Q03DX003 (ip), vehicle: saline with Tween-80 103 % of control | dose: 12.5 mg/kg/injection, schedule: Q04DX003 (ip), vehicle: saline with Tween-80 93 % of control

O=c1[nH]c2ccccc2c2cc3ccccc3cc12
inactive: dose: 88.8 mg/kg/injection, schedule: Q01DX001 (ip), vehicle: carboxymethylcellulose (CMC) 93 % of control and 102 % of control | [1] 93 % of control | dose: 133.4 mg/kg/injection, schedule: Q01DX001 (ip), vehicle: carboxymethylcellulose (CMC) 95 % of control and 102 % of control | dose: 300.0 mg/kg/injection, schedule: Q01DX001 (ip), vehicle: carboxymethylcellulose (CMC) 100 % of control and 88 % of control | [2] 93 % of control

CCOC(CN)OCC
inactive: dose: 100.0 mg/kg/injection, schedule: Q01DX009 (ip), vehicle: saline 114 % of control | dose: 100.0 mg/kg/injection, schedule: Q04DX003 (ip), vehicle: saline 112 % of control | dose: 200.0 mg/kg/injection, schedule: Q01DX009 (ip), vehicle: saline 107 % of control | dose: 200.0 mg/kg/injection, schedule: Q04DX003 (ip), vehicle: saline 102 % of control | dose: 400.0 mg/kg/injection, schedule: Q01DX009 (ip), vehicle: saline 106 % of control | dose: 400.0 mg/kg/injection, schedule: Q04DX003 (ip), vehicle: saline 97 % of control

COC(=O)CNC(=O)CNC(=O)c1ccccc1 (Bz-Gly-Gly-OMe)
inactive: [3] 89 % of control | [4] 87 % of control | [5] 87 % of control

CCCCCCCCCCCCCC(=O)OCC(C)C
inactive: dose: 222.0 mg/kg/injection, schedule: Q01DX Z (ip), vehicle: saline 94 % of control | dose: 333.0 mg/kg/injection, schedule: Q01DX Z (ip), vehicle: saline 90 % of control | dose: 500.0 mg/kg/injection, schedule: Q01DX Z (ip), vehicle: saline 94 % of control

COC(=O)C1ON(C(=O)c2ccccc2)C(C)C2OC12 (stereo not given)
inactive: [6] 103 % of control | [7] 100 % of control | [8] 96 % of control

Cc1cc(C(=O)O)c(C(=O)O)c(=O)[nH]1
inactive: dose: 75.0 mg/kg/injection, schedule: Q01DX001 (ip), vehicle: other 111 % of control | dose: 150.0 mg/kg/injection, schedule: Q01DX001 (ip), vehicle: other 104 % of control | dose: 300.0 mg/kg/injection, schedule: Q01DX001 (ip), vehicle: other 102 % of control

Nc1cccc2c1C(=O)c1cccc(NC(=O)c3ccccc3)c1C2=O
inactive: dose: 6.25 mg/kg/injection, schedule: Q01DX009 (ip), vehicle: Klucel (hydroxypropylcellulose) (HPC) 89 % of control | dose: 12.5 mg/kg/injection, schedule: Q01DX009 (ip), vehicle: Klucel (hydroxypropylcellulose) (HPC) 92 % of control | dose: 25.0 mg/kg/injection, schedule: Q01DX009 (ip), vehicle: Klucel (hydroxypropylcellulose) (HPC) 89 % of control | dose: 50.0 mg/kg/injection, schedule: Q01DX009 (ip), vehicle: Klucel (hydroxypropylcellulose) (HPC) 108 % of control | dose: 100.0 mg/kg/injection, schedule: Q01DX009 (ip), vehicle: Klucel (hydroxypropylcellulose) (HPC) 95 % of control | [6] 96 % of control | dose: 200.0 mg/kg/injection, schedule: Q01DX009 (ip), vehicle: Klucel (hydroxypropylcellulose) (HPC) 95 % of control | [7] 91 % of control | dose: 400.0 mg/kg/injection, schedule: Q01DX009 (ip), vehicle: Klucel (hydroxypropylcellulose) (HPC) 99 % of control | [8] 90 % of control

CC1(C)C(OS(C)(=O)=O)C(C)(C)C1OS(C)(=O)=O (stereo not given)
inactive: dose: 50.0 mg/kg/injection, schedule: Q01DX001 (ip), vehicle: carboxymethylcellulose (CMC) 111 % of control | [1] 121 % of control | dose: 100.0 mg/kg/injection, schedule: Q01DX001 (sc), vehicle: carboxymethylcellulose (CMC) 108 % of control | dose: 200.0 mg/kg/injection, schedule: Q01DX001 (ip), vehicle: carboxymethylcellulose (CMC) 100 % of control | dose: 200.0 mg/kg/injection, schedule: Q01DX001 (sc), vehicle: carboxymethylcellulose (CMC) 108 % of control | [2] 100 % of control | dose: 400.0 mg/kg/injection, schedule: Q01DX001 (sc), vehicle: carboxymethylcellulose (CMC) 100 % of control

Brc1ccc(-c2nc3ccccc3[nH]2)cc1
inactive: [3] 93 % of control | dose: 100.0 mg/kg/injection, schedule: Q04DX003 (ip), vehicle: saline with Tween-80 101 % of control | [4] 93 % of control | dose: 200.0 mg/kg/injection, schedule: Q04DX003 (ip), vehicle: saline with Tween-80 104 % of control | [5] 93 % of control | dose: 400.0 mg/kg/injection, schedule: Q04DX003 (ip), vehicle: saline with Tween-80 101 % of control
